Test results: US8481678B2, “Peptide-based tooth whitening reagents” (E I du Pont de Nemours and Company, priority 2009, dated 2013)
Where no end group is shown, it is not given here. The star is where a group is joined. Biotin = O=C1N[C@H]2[C@H](CS[C@H]2CCCCC(=O)*)N1

tested on: pellicle-coated HAP disks (tooth pellicle); assay: Phage ELISA on pellicle-coated HAP disks; type: binding, human; conditions: over 10^10 pfu phage, TBST-0.5% washes, no-phage control 0.218
Description: A total of 20 selected phage candidates (Example 1) were used in a phage ELISA experiment. Purified phage lysates were used for binding to pellicle-coated HAP disks using an anti-M13 phage antibody conjugated to horseradish-peroxidase, followed by the addition of chromogenic agent TMB (3,3′,5,5′-tetramethylbenzidine), obtained from Pierce Biotechnology (Item #34021; Rockford, Ill.). The plates were read at A450 nm.
For each phage candidate to be tested, the pellicle-coated HAP disks (3 mm diameter) was incubated for 1 h at room temperature with 200 μL of blocking buffer, consisting of 2% non-fat dry milk (Schleicher & Schuell, Inc.) in TBS. […] The tube was rinsed 6 times with wash buffer consisting of TBST-0.05%. The wells were filled with 200 μL of TBST-0.5% containing 1 mg/mL BSA (bovine serum albumin) and then 10 μL (over 10^10 pfu) of purified phage stock was added. The samples were incubated at room temperature for 60 min with slow shaking. The non-binding phage were removed by washing 6 times with TBST-0.5%. Then, 100 μL of horseradish peroxidase/anti-M13 antibody conjugate (Amersham USA, Piscataway, N.J.), diluted 1:500 in the blocking buffer, was added and incubated for 1 hour at room temperature. The conjugate solution was removed and was washed 6 times with TBST-0.5%.

Substance | O.D. at 450 nm
NNTWPEGAGHTMPSTNIRQA (Tooth-binding peptide) [Pell 13] | 0.598
GNTDTTPPNAVMEPTVQHKW (Tooth-binding peptide) [Pell 9] | 0.755
NGPDMVQSVGKHKNS (Tooth-binding peptide) [Pell 10] | 0.729
NNTSADNPPETDSKHHLSMS (Tooth-binding peptide) [Pell 12] | 0.521
NPTATPHMKDPMHSNAHSSA (Tooth-binding peptide) [Pell 14] | 0.7
DLCSMQMMNTGCHY (Tooth-binding peptide) [Pell 5] | 0.83
NGPEVRQIPANFEKL (Tooth-binding peptide) [Pell 11] | 0.607
NPTDSTHMMHARNHE (Tooth-binding peptide) [Pell 16] | 0.578
DECMHGSDVEFCTS (Tooth-binding peptide) [Pell 4] | 0.664
DPNESNYENATTVSQPTRHL (Tooth-binding peptide) [Pell 7] | 0.831
DECMEPLNAAHCWR (Tooth-binding peptide) [Pell 3] | 0.49
QHCITERLHPPCTK (Tooth-binding peptide) [Pell 17] | 0.614
WCTDFCTRSTPTSTSRSTTS (Tooth-binding peptide) [Pell 20] | 0.715
TPCATYPHFSGCRA (Tooth-binding peptide) [Pell 19] | 0.731
AHPESLGIKYALDGNSDPHA (Tooth-binding peptide) [Pell 1] | 0.739
EPTHPTMRAQMHQSLRSSSP (Tooth-binding peptide) [Pell 8] | 0.712
NPTDHIPANSTNSRVSKGNT (Tooth-binding peptide) [Pell 15] | 0.567
TPCAPASFNPHCSR (Tooth-binding peptide) [Pell 18] | 0.416
DLCSSPSTWGSCIR (Tooth-binding peptide) [Pell 6] | 0.735
ASVSNYPPIHHLATSNTTVN (Tooth-binding peptide) [Pell 2] | 0.75

tested on: pellicle coated bovine enamel; assay: Phage ELISA on pellicle-coated bovine enamel (30 min in vivo pellicle), Example 13; type: binding, human; conditions: 10^11 pfu, 30 min at 37° C., normalized to an internal control
Experimental: A total of 29 selected phage candidates from Table 14 were used in phage ELISA Experiment to determine binding affinity and coverage of each phage on pellicle substrates. Purified phage lysates were used for binding to pellicle coated bovine enamel using an anti-M13 phage antibody conjugated to horseradish-peroxidase, followed by the addition of chromogenic agent TMB, obtained from Pierce Biotechnology (Rockford, Ill.). The plates were read at A450nm.
The wells were filled with 1 mL of 10^11 pfu purified phage stock which was prepared by diluting in blocking buffer. […] The non-binding phage was removed by washing 5 times with PBST. […] The conjugate solution was removed and was washed 3 times with PBST.

Substance | O.D. at 450 nm (normalized)
YLLPKDQTTAPQVTPIVQHK (Synthetic oral-surface binding peptide) [DenP 05] | 1.087
ELDHDSRHYMNGLQRKVT (Synthetic oral-surface binding peptide) [DenP 15] | 1.112
APPTYQTASYPHNLPSKRKM (Synthetic oral-surface binding peptide) [DenP 28] | 1.203
FDGIGLGTATRHQNR (Synthetic oral-surface binding peptide) [DenP 12] | 2.079
TMTNHVYNSYTEKHSSTHRS (Synthetic oral-surface binding peptide) [DenP 02] | 1.951
SNATMYNIQSHSHHQ (Synthetic oral-surface binding peptide) [DenP 24] | 0.979
NGNNHTDIPNRSSYTGGSFA (Synthetic oral-surface binding peptide) [DenP 01] | 1.002
TTGSSSQADTSASMSIVPAH (Synthetic oral-surface binding peptide) [DenP 17] | 0.971
GMPTRYYHNTPPHLTPKF (Synthetic oral-surface binding peptide) [DenP 08] | 1.182
TYQGVPSWPAVIDDAIRR (Synthetic oral-surface binding peptide) [DenP 19] | 1.052
HKNENIMQYNVNDRWHITPA (Synthetic oral-surface binding peptide) [DenP 32] | 1.441
DLGTFPNRTLKMAAH (Synthetic oral-surface binding peptide) [DenP 11] | 1.663
GPQHVLMQDTHQGYAFDN (Synthetic oral-surface binding peptide) [DenP 16] | 2.190
EFPYYNDNPPNPERHTLR (Synthetic oral-surface binding peptide) [DenP 07] | 1.500
HDPNHLTHQARTIYRNANHT (Synthetic oral-surface binding peptide) [DenP 23] | 1.236
VNPNWVETQALHQPPGNT (Synthetic oral-surface binding peptide) [DenP 20] | 1.298
DHNNRQHAVEVRENKTHTAR (Synthetic oral-surface binding peptide) [DenP 21] | 0.728
IPWWNIRAPLNAGGG [Control, reference compound] | 1.000
IYPNESMSTSNVRGPYHP (Synthetic oral-surface binding peptide) [DenP 22] | 1.420
QAAQVHMMQHSRPTT (Synthetic oral-surface binding peptide) [DenP 13] | 0.845
ANELSTYAQTNPGSG (Synthetic oral-surface binding peptide) [DenP 25] | 0.909
TNDLHANPFTGTYIAPDPTS (Synthetic oral-surface binding peptide) [DenP 30] | 1.082
KAPIANMLQPHSYQYSVA (Synthetic oral-surface binding peptide) [DenP 18] | 1.143
HKNAIQPVNDATTLDTTM (Synthetic oral-surface binding peptide) [DenP 09] | 1.364
VEPATKNMREARSSTQMRRI (Synthetic oral-surface binding peptide) [DenP 04] | 1.421
AVVPADLNDHANHLS (Synthetic oral-surface binding peptide) [DenP 10] | 1.619
SEARARTFNDHTTPMPII (Synthetic oral-surface binding peptide) [DenP 14] | 2.498
DTIHPNKMKSPSSPL (Synthetic oral-surface binding peptide) [DenP 26] | 1.039
QVPDYLSPTHQKKAFLEIPT (Synthetic oral-surface binding peptide) [DenP 29] | 0.976

tested on: pellicle-coated enamel substrates; assay: not given; conditions: 20 μM synthetic biotinylated peptide, 30 min at 37° C.; normalized to DenP03; three replicates; no peptide −0.001
Experimental: A total of 20 synthetic peptides were manufactured using sequences obtained from Table 14. Peptides were obtained from Synbiosci (Livermore, Calif.) and included an additional SSRP sequence (SEQ ID NO: 151) at the N-terminus and biotin labeled lysine at the C-terminus.
Enamel substrates were cut to approx. 7 mm squares and mounted on wax mounting for incubation in the mouth for 30 min to form a pellicle coated surface. The pellicle-coated enamel substrates were removed from the wax backing and placed in well plates with the pellicle surface exposed as in Example 1. Each pellicle-coated substrate was incubated for 1 h at room temperature (˜22° C.) with 1 mL of blocking buffer, consisting of 1 mg/mL BSA in PBST (Pierce BupH™ #28372 with 0.1% TWEEN® 20). The blocking buffer was removed by aspirating the liquid out of each well. The tube was rinsed 2 times with wash buffer consisting of PBST. The wells were filled with 500 μL of 20 μM peptide solution which was prepared by diluting in blocking buffer. The samples were incubated for 30 min with slow shaking at 37° C. The non-binding peptide was removed by washing 6 times with PBST. Then, 500 μL of horseradish peroxidase/streptavidin conjugate (Pierce #22127), diluted 1:2000 in PBST, was added and incubated for 1 h at room temperature. The conjugate solution was removed and was washed 4 times with PBST.
Each enamel substrate was removed from the well and washed again in a 15-mL test tube with 10 mL of PBST. Each enamel substrate was then mounted in a clean well plate with only the enamel surface exposed. A 1:1 solution of TMB substrate and H2O2 (200 μL), obtained from Pierce Biotechnology (Rockford, Ill.) was added to each well and the color was allowed to develop for between 10 to 20 min, typically for 15 min, at room temperature (˜22° C.). Then, 100 μL of solution from each well was transferred to a 96-well reading plate containing stop solution (100 μL of 2 M H2SO4) in each well. The A450 was measured using a microplate spectrophotometer (Molecular Devices, Sunnyvale, Calif.). […] Each sequence was tested with three replicate enamel coated pellicle substrates.

Substance | O.D. at 450 nm (normalized)
SSRPDLGTFPNRTLKMAAHK(Biotin) [DenP11-A] | 0.454
SSRPHDPNHLTHQARTIYRNANHTK(Biotin) [DenP23-A] | 0.850
SSRPNGNNHTDIPNRSSYTGGSFAK(Biotin) [DenP1-A] | 0.154
SSRPQAAQVHMMQHSRPTTK(Biotin) [DenP13-A] | 0.699
SSRPVNPNWVETQALHQPPGNTK(Biotin) [DenP20-A] | 0.590
SSRPIYPNESMSTSNVRGPYHPK(Biotin) [DenP22-A] | 0.354
SSRPQVPDYLSPTHQKKAFLEIPTK(Biotin) [DenP29-A] | 0.468
SSRPEFPYYNDNPPNPERHTLRK(Biotin) [DenP7-A] | 0.356
SSRPTMTNHVYNSYTEKHSSTHRSK(Biotin) [DenP2-A] | 0.273
SSRPSEARARTFNDHTTPMPIIK(Biotin) [DenP14-A] | 0.269
